Counter-ions that a name gives are not always drawn.
System: HCT116
Assay: efficacy (fitted maximal change in viability relative to DMSO control); higher = less cytotoxic (negative = loss of viability)
Settings: 48 h
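Further: Luminescence-based viability readout, five doses per compound, normalized against on-plate DMSO and empty-well controls, followed by dose-response curve fitting for every drug.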

Structure (SMILES) | efficacy
CC(NCCc1ccc(O)cc1)C(O)c1ccc(O)cc1 (stereo not drawn) [Ritodrine hydrochloride] | -19.4%
COCc1c(-c2ccc(NC(=O)Nc3cc(C(F)(F)F)ccc3F)c(F)c2)c2c(N)ncnn2c1CN1CCOCC1 [ACTB-1003] | -76%
CCOC(=O)/C=C/[C@H](C[C@@H]1CCNC1=O)NC(=O)[C@@H](CC(=O)[C@@H](NC(=O)c1cc(C)on1)C(C)C)Cc1ccc(F)cc1 [Rupintrivir] | -12.7%
CC/C(=C(/c1ccc(O)cc1)c1ccc(OCCNC)cc1)c1ccccc1 [Endoxifen] | -71.8%
O=C(Nc1c(Cl)cncc1Cl)c1ccc(OC(F)F)c(OCC2CC2)c1 [Roflumilast] | -20.6%
CCCc1nc2c(C)cc(-c3nc4ccccc4n3C)cc2n1Cc1ccc(-c2ccccc2C(=O)O)cc1 [Telmisartan] | -20.9%
NCCCCCC(=O)O [Aminocaproic acid] | -11.3%
Nc1cccc2c1C(=O)N(C1CCC(=O)NC1=O)C2=O (stereo not drawn) [Pomalidomide] | -14.1%
CN(C)C(=N)NC(=N)N [Metformin] | -21.8%
CC1=CC(=C(O)C(=C1C\C2=N\CCN2)C)C(C)(C)C [Oxymetazoline hydrochloride] | -19.1%
C#C[C@]1(O)CC[C@H]2[C@@H]3CCc4cc(OC)ccc4[C@H]3CC[C@@]21C [Mestranol] | -33.5%
OC1=CC=C(C=C1)\C2=C\OC3=C(C=CC(=C3)O)C2=O [Daidzein] | 12.4%
CC1(C)CNc2cc(NC(=O)c3cccnc3NCc3ccncc3)ccc21 [Motesanib] | 10.7%
N[S+](=O)([O-])c1cc(Cl)c(Cl)c([S+](N)(=O)[O-])c1 [Diclofenamide] | -19.2%
CC(C)Oc1ccc2c(=O)c(-c3ccccc3)coc2c1 [Ipriflavone] | -27.7%
CC[S+](=O)([O-])c1ccc2oc(-c3ccc4ccccc4c3)nc2c1 [Ezutromid] | -24.2%
Cc1ccc(Nc2cc(N[C@@H]3CCCC[C@@H]3N)nnc2C(N)=O)nc1C [RO-9021] | -74.9%
CN[C@@H](C)C(=O)N[C@H](C(=O)N1CCC[C@H]1c1nc(C(=O)c2ccc(F)cc2)cs1)C1CCCCC1 [LCL-161] | -23.8%
C[C@@H]1CC2=C(C=C3OCOC3=C2)C(=N\N1C(C)=O)/C4=CC=C(N)C=C4 [Ampanel] | -12.4%
CCn1nc(C2CCN(C(=O)CCO)CC2)nc1-c1cnc(N)c(-c2nnc(C(C)(C)C)o2)n1 [AZD-8835] | -18.9%
CN1CCC(=C2c3ccccc3CC(=O)c3sccc32)CC1 [Ketotifen] | -39.1%
CC1(C)O[C@@H]2C[C@H]3[C@@H]4C[C@H](F)\C5=C\C(=O)\C=C/[C@]5(C)[C@H]4[C@@H](O)C[C@]3(C)[C@@]2(O1)C(=O)CO [FLUNISOLIDE] | -18.4%
CN1CCN(C(=O)c2ccc(-c3ccc4c(C=O)c(O)ccc4c3)s2)CC1 [MKC-3946] | -13.9%
C[C@H](CCC(=O)O)[C@H]1CC[C@H]2[C@@H]3[C@H](O)C[C@@H]4C[C@H](O)CC[C@]4(C)[C@H]3CC[C@]12C [Chenodeoxycholic acid] | -16%

Structure (SMILES) | efficacy
CCC(CC)CC1(C(=O)Nc2ccccc2SC(=O)C(C)C)CCCCC1 [Dalcetrapib] | -17.1%
Cc1c[nH]c(/C=C2\C(=O)Nc3ccccc32)c1CCC(=O)O [SU-5402] | -32.1%
C[C@@H]1COCCN1C\2=C\C(=O)N\3CC[C@H](N(CC4=CN=CC(=C4)Cl)C3=N2)C(F)(F)F [SAR-405] | -26.6%
O=C1NNc2nc(CN3Cc4ccccc4C3)nc3cccc1c23 [E-7449] | -29.7%
C[C@@H]1[C@H]\2[C@H](O)[C@H]3[C@H](N(C)C)\C(=C(C(N)=O)/C(=O)[C@@]3(O)\C(=C2C(=O)C4=C(O)C=CC=C14)O)O [Doxycycline] | 12.1%
COc1cc([C@@H](CC(=O)O)c2ccc(C)c(CN3C[C@@H](C)Oc4ccccc4[S+]3(=O)[O-])c2)cc2nnn(C)c12 [KI-696] | -21.8%
COC1CCN(CC1)C(=O)C2=CC(=CC=C2F)CC/3=N/NC(=O)C4=CC=CC=C34 [AZD-2461] | -29.2%
O=C(O)C(=O)Nc1cccc(-c2nnn[nH]2)c1 [Acitazanolast] | 17%
O=C1NC(O)CCN1[C@@H]1O[C@H](CO)[C@@H](O)[C@H]1O (stereo partly drawn) [Tetrahydrouridine] | -11.8%
CN[C@@H]1[C@@H](O)[C@@H](O[C@@H]2[C@@H](O)[C@H](O[C@H]3O[C@H](CN)[C@@H](O)[C@H](O)[C@H]3O)[C@@H](N)C[C@H]2NC(=O)C(O)CN)OC[C@]1(C)O.O=S(=O)(O)O (stereo partly drawn) [Isepamicin sulfate] | -15.7%
Cc1cccc(-c2nn3c(c2-c2ccnc4ccc(C(N)=O)cc24)CCC3)n1 [Galunisertib] | 12.5%
OC[C@H]1O[C@@H](O[C@@H]2[C@@H](CO)OC(O)(CO)[C@H]2O)[C@H](O)[C@@H](O)[C@H]1O (mixture of isomers) [Lactulose] | 9%
O=C(O)CNC(=O)C1C(=O)N(C2CCCCC2)C(=O)N(C2CCCCC2)C1=O [Daprodustat] | -6.36%
C[S+]([O-])(=O)C1=CC=C(C=C1)C/2=C(/C(=O)OC2)C3=CC=CC=C3 [Rofecoxib] | -13.7%
COC1=CC=C(C=C1)C/2=C(OC3O[C@@H](C)[C@H](O)[C@@H](O)[C@H]3O)/C(=O)C4=C(O2)C(=C(OC5O[C@H](CO)[C@@H](O)[C@H](O)[C@H]5O)C=C4O)CC=C(C)C (stereo partly drawn) [Icariin] | -27.5%
C[C@H](NC(=O)Cc1cc(F)cc(F)c1)C(=O)N[C@H](C(=O)OC(C)(C)C)c1ccccc1 [GSI-IX] | 26%
CC(C)=CCC/C(C)=C/CC/C(C)=C/CSc1ccccc1C(=O)O [Salirasib] | -28.8%
N\C1=N\C2=C(N=C[N]2COC(CO)CO)C(=O)N1 [Ganciclovir] | -18.1%
Nc1nccc(-c2c(-c3ccc(F)cc3)ncn2C2CCCCC2)n1 | -55.4%
CN[C@H](CC(C)C)C(=O)N[C@H]1C(=O)N[C@@H](CC(N)=O)C(=O)N[C@H]2C(=O)N[C@H]3C(=O)N[C@H](C(=O)N[C@H](C(=O)O)c4cc(O)cc(O)c4-c4cc3ccc4O)[C@H](O)c3ccc(c(Cl)c3)Oc3cc2cc(c3O[C@@H]2O[C@H](CO)[C@@H](O)[C@H](O)[C@H]2O[C@H]2C[C@](C)(N)[C@H](O)[C@H](C)O2)Oc2ccc(cc2Cl)[C@H]1O [Vancomycin hydrochloride] | -27%
CC[C@H]1OC(=O)[C@H](C)C(=O)[C@H](C)[C@@H](O[C@H]2O[C@H](C)C[C@H](N(C)C)[C@H]2O)[C@](C)(OC)C[C@@H](C)C(=O)[C@H](C)[C@H]2N(CCCCn3cnc(-c4cccnc4)c3)C(=O)O[C@]12C [Telithromycin] | -11.9%
C[C@@H](O)[C@@H]1NC(=O)[C@H](CCCCN)NC(=O)[C@@H](Cc2c[nH]c3ccccc23)NC(=O)[C@H](Cc2ccccc2)NC(=O)[C@@H](NC(=O)[C@H](N)Cc2ccccc2)CSSC[C@@H](C(=O)N[C@H](CO)[C@@H](C)O)NC1=O [Octreotide] | 9.15%
CC(C)(C(=O)NCC(F)(F)C(F)(F)F)C(=O)N[C@@H]1C(=O)Nc2ccccc2-c2ccccc21 | -10.6%
CC1=NN(c2ccc(C(=O)O)cc2)C(=O)/C1=C/c1ccc(-c2cc(C)c(C)cc2[N+](=O)[O-])o1 [C-646] | -21%

From the supplement of paper PMC10290057
